The record followed here is US9981968B2, “Substituted pyrrolo[2,3-d]pyrimidines for the treatment of cancer and proliferative disorders” (Northwestern University, priority 2013, dated 2018).

In general, viability refers to a read-out of living cells in per cent, often relative to untreated cells.

Holding throughout (type): cell-based
Test [1] relates to CCRF-CEM. As to the kind of experiment: SRB growth assay, CCRF-CEM. The conditions noted are these: Homo sapiens, CCRF-CEM (Leukemia), 48 hours, read-out: Percent viability. The source says:
(§1) Tested cell lines included, Leukemia: CCRF-CEM, HL-60(TB), MOLT-4, RPMI-8226 and SR; Non-Small Cell Lung: A549/ATCC, EKVX, HOP-62, HOP-92, NCI-H226, NCI-H23, NCI-H322M, NCI-H460 and NCI-H522; Colon: COLO 205, HCC-2998, HCT-116, HCT-15. HT29, KM12 and SW-620; CNS: SF-268, SF-295, SF-539, SNB-19, SNB-75 and U251; Melanoma: LOX IMVI, MALME-3M, M14, MDA-MB-435, SK-MEL-2, SK-MEL-28, SK-MEL-5, UACC-257 and UACC-62; Ovarian: IGR-OV1, OVCAR-3, OVCAR-4, OVCAR-5, OVCAR-8. NCI/ADR-RES and SK-OV-3; Renal: 786-0, A498, ACHN, CAKI-1, RXF 393, SN12C, TK-10 and UO-31; Prostate: DU-145 and PC-3; and Breast: MCF7, MDA-MB-231/ATCC, MDA-MB-468, HS 578T, BT-549 and T-47D.
(§2) The cells were cultured in RPMI1640 media supplemented with 10% Fetal Bovine Serum (FBS), 2 mM glutamine and with 5% CO2 and 37° C. For experiment, 5% of FBS and 50 ug/mL of gentamycin were used. Test articles were 10 μM of NUCL 381-3 or 10 μM NUCL 383-3. The positive control was 10 μM of doxorubicin.
(§3) Cells were plated in 96 well plates. The cells were plated in triplicate. Cells were plated at the densities based on NCI recommendation. Time zero cells (Tz) were fixed the following day with 50% or 80% ice cold Trichloracetic acid (TCA) and washed 5× with water. At 48 hours post addition of treatments, all remaining plates were fixed in 80% ice cold Trichloracetic acid (TCA) and washed 5× with water. After drying, one hundred microliters of 0.4% Sulphorhodamine B (SRB) in 1% acetic acid was added to each plate including the Tzero plate and incubated for 10 minutes at room temperature. After 5 additional washes with 1% acetic acid, plates were allowed to dry. One hundred microliters of Trizma base was added to each well and plates were read at 515 nm.
(§4) Percent of growth was calculated by the following formulas: [Ti/C]×100, where: Tz=absorbance readings for wells at time zero without treatment; C=absorbance readings of untreated cells (without treatment); and Ti=absorbance reading of wells with treatment.
In general terms: In SRB staining, fixed cells bind dye roughly in proportion to their protein.

Test [2] deals with HL-60(TB). As to the kind of experiment: SRB growth assay, HL-60(TB). The following applies: Homo sapiens, HL-60(TB) (Leukemia), 48 hours, read-out: Percent viability.
Description: as §1, §2, §3, §4

The subject of test [3] is K-562. As to the kind of experiment: SRB growth assay, K-562. The conditions noted are these: Homo sapiens, K562, K-562 (Leukemia), 48 hours, read-out: Percent viability.
Description: as §1, §2, §3, §4

For test [4], the system named is MOLT-4. The test can be described thus: SRB growth assay, MOLT-4. The conditions noted are these: Homo sapiens, MOLT-4 (Leukemia), 48 hours, read-out: Percent viability.
Description: as §1, §2, §3, §4

Test [5] has as its system EKVX. The test can be described thus: SRB growth assay, EKVX. The conditions noted are these: Homo sapiens, EKVX (Non-Small Cell Lung), 48 hours, read-out: Percent viability.
Description: as §1, §2, §3, §4

The subject of test [6] is HOP-92. As to the kind of experiment: SRB growth assay, HOP-92. The following applies: Homo sapiens, HOP-92 (Non-Small Cell Lung), 48 hours, read-out: Percent viability.
Description: as §1, §2, §3, §4

Test [7] has as its system NCI-H23. The test can be described thus: SRB growth assay, NCI-H23. The following applies: Homo sapiens, NCI-H23 (Non-Small Cell Lung), 48 hours, read-out: Percent viability.
Description: as §1, §2, §3, §4

For test [8], the system named is NCI-H460. The test can be described thus: SRB growth assay, NCI-H460. The conditions noted are these: Homo sapiens, NCI-H460 (Non-Small Cell Lung), 48 hours, read-out: Percent viability.
Description: as §1, §2, §3, §4

For test [9], the system named is HCC-2998. The test can be described thus: SRB growth assay, HCC-2998. The conditions noted are these: Homo sapiens, HCC-2998 (Colon), 48 hours, read-out: Percent viability.
Description: as §1, §2, §3, §4

In test [10] the test system is HCT-116. The test can be described thus: SRB growth assay, HCT-116. The conditions noted are these: Homo sapiens, HCT-116 (Colon), 48 hours, read-out: Percent viability.
Description: as §1, §2, §3, §4

Test [11] has as its system MDA-MB-435. As to the kind of experiment: SRB growth assay, MDA-MB-435. The following applies: Homo sapiens, MDA-MB-435 (Melanoma), 48 hours, read-out: Percent viability.
Description: as §1, §2, §3, §4

In test [12] the test system is SK-MEL-5. The test can be described thus: SRB growth assay, SK-MEL-5. The conditions noted are these: Homo sapiens, SK-MEL-5 (Melanoma), 48 hours, read-out: Percent viability.
Description: as §1, §2, §3, §4

For test [13], the system named is OVCAR-4. The test can be described thus: SRB growth assay, OVCAR-4. The following applies: Homo sapiens, OVCAR-4 (Ovarian), 48 hours, read-out: Percent viability.
Description: as §1, §2, §3, §4

Test [14] deals with OVCAR-8. As to the kind of experiment: SRB growth assay, OVCAR-8. The conditions noted are these: Homo sapiens, OVCAR-8 (Ovarian), 48 hours, read-out: Percent viability.
Description: as §1, §2, §3, §4

Test [15] concerns 786-0. The test can be described thus: SRB growth assay, 786-0. The conditions noted are these: Homo sapiens, 786-0 (Renal), 48 hours, read-out: Percent viability.
Description: as §1, §2, §3, §4

Test [16] concerns RXF 393. As to the kind of experiment: SRB growth assay, RXF 393. The following applies: Homo sapiens, RXF 393 (Renal), 48 hours, read-out: Percent viability.
Description: as §1, §2, §3, §4

The subject of test [17] is SN12C. The test can be described thus: SRB growth assay, SN12C. The following applies: Homo sapiens, SN12C (Renal), 48 hours, read-out: Percent viability.
Description: as §1, §2, §3, §4

In test [18] the test system is TK-10. As to the kind of experiment: SRB growth assay, TK-10. The following applies: Homo sapiens, TK-10 (Renal), 48 hours, read-out: Percent viability.
Description: as §1, §2, §3, §4

The subject of test [19] is PC-3. The test can be described thus: SRB growth assay, PC-3. The conditions noted are these: Homo sapiens, PC-3 (Prostate), 48 hours, read-out: Percent viability.
Description: as §1, §2, §3, §4

Test [20] concerns DU-145. The test can be described thus: SRB growth assay, DU-145. The following applies: Homo sapiens, DU-145 (Prostate), 48 hours, read-out: Percent viability.
Description: as §1, §2, §3, §4

For test [21], the system named is MCF7. As to the kind of experiment: SRB growth assay, MCF7. The conditions noted are these: Homo sapiens, MCF7 (Breast), 48 hours, read-out: Percent viability.
Description: as §1, §2, §3, §4

For test [22], the system named is BT-549. As to the kind of experiment: SRB growth assay, BT-549. The conditions noted are these: Homo sapiens, BT-549 (Breast), 48 hours, read-out: Percent viability.
Description: as §1, §2, §3, §4

The subject of test [23] is T-47D. The test can be described thus: SRB growth assay, T-47D. The following applies: Homo sapiens, T47D, T-47D (Breast), 48 hours, read-out: Percent viability.
Description: as §1, §2, §3, §4

As to `COc1cccc2c1C(=O)c1c(O)c3c(c(O)c1C2=O)C[C@@](O)(C(=O)CO)C[C@@H]3O[C@H]1C[C@H](N)[C@H](O)[C@H](C)O1` [Doxorubicin, reference compound], the viability at 10 µM in test [1] was found to be 43.6%; in test [2], 25%; in test [3], 17.1%; in test [4] it was 30.4%; in [5], 35.5%; in [6], 98.5%. Further, the viability at 10 µM was 27.6% in [7]; 35% in test [8]; 20.9% in test [9]; 14.9% in test [10]; 17.4% in test [11]; 7.01% in test [12]. Further, the viability at 10 µM in test [13] came to 103%; in [14], 15%; in [15] it was 17.6%; in test [16], 8.68%; in test [17], 45.4%; in [18], 35.9%. Besides, the viability at 10 µM in [19] turned out to be 50%; in test [20], 72.5%; in test [21], 69.1%; in test [22], 62.5%; in [23], 37.5%.
For `FC(F)(F)c1cn(CC2CCNCC2)c2ncnc(Cl)c12` [NUCC-0000381], the viability at 10 µM worked out at 52.8% in [1]; 25.8% in test [2]; 8.38% in test [3]; 75.5% in test [4]; 57.5% in test [5]; 56.8% in [6]. Moreover, the viability at 10 µM in [7] turned out to be 42.3%; in test [8], 26.4%; in test [9] it was 93.5%; in test [10] it was 20.1%; in [11], 65.5%; in [12] it was 100%. Moreover, the viability at 10 µM in test [13] was 53%; in test [14], 31.7%; in [15] it was 94.2%; in test [16] it was 12%; in test [17], 42.1%; in test [18] it was 88.5%. In addition, the viability at 10 µM in [19] was found to be 8.43%; in [20] it was 29.8%; in [21], 89.8%; in test [22], 103%; in test [23], 60.8%.
Turning to `CS(=O)(=O)N1CCC(Cn2cc(C(F)(F)F)c3c(Cl)ncnc32)CC1` [NUCC-0000383], the viability at 10 µM is 54% in test [1]; 22.5% in [2]; 10.2% in test [3]; 17.9% in test [4]; 84.6% in test [5]; 97.6% in [6]. The viability at 10 µM in test [7] was determined as 46.1%; in [8], 69.1%; in test [9] it was 73.2%; in [10], 15%; in test [11] it was 46.6%; in test [12], 6.11%. Moreover, the viability at 10 µM is 97% in [13]; 73.9% in test [14]; 69.5% in test [15]; 7.81% in test [16]; 25.8% in test [17]; 73.9% in test [18]. Besides, the viability at 10 µM in test [19] is 3.55%; in test [20], 11.2%; in [21] it was 108%; in test [22], 79.2%; in test [23], 63.3%.
